Residues, ends and D or L forms follow the SMILES beside them. No end group written: not given here.
How the values were obtained:
[1] = system: B. jararaca and B. atrox venoms; assay type: in vitro ADME, Bothrops jararaca; Bothrops atrox; conditions: incubation with B. jararaca and B. atrox venoms (0.1 µg of both venoms per table footnote; 90 ng and 20 ng per method), 50 µM peptide, 4 h, 37 °C, 100 mM Tris HCl, 20 mM NaCl, pH 7.4; RP-HPLC C-18, UV 214 nm; relative to β-chain of insulin
Description: To verify the stability of the synthetic peptides, they were incubated with both venoms, and tests were performed using reverse-phase liquid chromatography on a C-18 column. […] As a positive control, the β-chain of insulin was used, which is known to be a substrate for the SVSPs and SVMPs of bothropic venoms.
With the aim of verifying the possible hydrolysis of peptides by the studied venoms, the samples were prepared in 100 mM Tris-HCl, 20 mM NaCl, pH 7.4, final volume 100 µL, using 50 µM of each synthetic peptide, incubating them separately with the venoms of B. jararaca (90 ng) and B. atrox (20 ng) for 4 h at 37 °C, the same concentrations used in the enzymatic assays. A solution containing the β-chain of insulin (50 µM) was used as a positive control since it is a described substrate for SVSP from both venoms. The conditions for the HPLC (Shimadzu Prominence) analysis used 0.1% trifluoroacetic acid (TFA) in water (solvent A), and acetonitrile (ACN) and solvent A (9:1) as solvent B. The analyses occurred at a flow rate of 1 mL/min using a C-18 column (Shim-pack VP-ODS4.6 x 150 mm) and a gradient of 20–60% solvent B for 20 min. In all cases, 50 µL of each sample was injected and the absorbance was monitored at 214 nm.

human thrombin = human thrombin (Homo sapiens, UniProt P00734); test: Inhibition of human thrombin, Abz-FRSSRQ-EDDnp substrate; assay type: biochemical; conditions: for Ki: Dixon plot, three peptide concentrations including zero, thrombin 300 ng/µL, Abz-FRSSRQ-EDDnp substrate, read-out: inhibition constant (Ki) against human thrombin; for reduction of hydrolytic activity of thrombin: peptide 100 µM, 300 ng human thrombin, Abz-FRSSRQ-EDDnp 5 µM, 100 mM Tris-HCl, 20 mM NaCl, pH 7.4, 37 °C, quadruplicate
Description: Figure 8 Inhibitory activity assay against human thrombin (panel A), trypsin (panel B), and elastase-1 (panel C). The experiments were performed in a fluorimeter (Hidex 425-301, Turku, Finland), with readings adjusted for excitation and emission at 320 and 420 nm using Abz-FRSSRQ-EDDnp as a substrate. Assays were performed in quadruplicate, in Tris-HCl 50 mM, pH 8.0 (for trypsin and elastase-1 assays), and 100 mM Tris-HCl, 20 mM NaCl, pH 7.4, for human thrombin at 37 °C, using 1.7 ng/µL of trypsin, 300 ng/µL of human thrombin, and 300 ng of elastase-1. […] Panel (B): For these assays, the peptides were used at 100 µM, and CDR3 A and CDR3 E inhibited the substrate hydrolysis by thrombin by 34% and 100%, respectively. […] (****) p < 0.0001.
With the obtained velocities, curves were plotted on the Dixon plot (1/V versus [I]) (Figure 9).
Lines indicate a competitive mechanism of action. Kis of 61.77 µM (CDR3 A) and 55.75 (CDR3 E) were obtained. For the construction of the graph, the software GraphPad Prism 8 was used.
(§1) To verify the selective inhibition of the SVTLE by the peptides, it was necessary to perform experiments with other serine proteases of physiological relevance. For this, the possible inhibition of elastase-1 (EC 3.4.21.36), trypsin (EC 3.4.21.4), and human thrombin (EC 3.4.21.5) was analyzed. The evaluation of enzyme activities was performed as described above. The activities were assessed in 50 mM Tris-HCl, pH 8, for trypsin; Tris-HCl 50 mM, NaCl 50 mM, pH 8, for elastase-1; and 100 mM Tris-HCl, 20 mM NaCl, pH 7.4, for human thrombin (final volume of 100 µL), using 96-well plates (Corning) and the substrate Abz-FRSSRQ-EDDnp (5 µM). All reactions occurred at 37 °C using 1.7 ng of trypsin, 300 ng of human thrombin, and 300 ng of elastase-1. Assays were performed on a Hidex fluorimeter (425-301 Hidex, Turku, Finland), with the excitation and emission of fluorescence fixed at 320 and 420 nm, respectively. The trypsin and elastase-1 assays were performed using 20 µM of each peptide, and the human thrombin assays were performed using 100 µM. The readings occurred over 15 min at 1 min intervals. The experiments were performed in quadruplicate.

[2] = target: elastase-1 (EC 3.4.21.36) (Sus scrofa, UniProt P00772); test: Inhibition of elastase-1, Abz-FRSSRQ-EDDnp substrate; assay type: biochemical; conditions: peptide 20 µM, 300 ng elastase-1, Abz-FRSSRQ-EDDnp 5 µM, Tris-HCl 50 mM, pH 8, 37 °C, quadruplicate
Description: Figure 8 Inhibitory activity assay against human thrombin (panel A), trypsin (panel B), and elastase-1 (panel C). The experiments were performed in a fluorimeter (Hidex 425-301, Turku, Finland), with readings adjusted for excitation and emission at 320 and 420 nm using Abz-FRSSRQ-EDDnp as a substrate. Assays were performed in quadruplicate, in Tris-HCl 50 mM, pH 8.0 (for trypsin and elastase-1 assays), and 100 mM Tris-HCl, 20 mM NaCl, pH 7.4, for human thrombin at 37 °C, using 1.7 ng/µL of trypsin, 300 ng/µL of human thrombin, and 300 ng of elastase-1. […]
as §1, with “The evaluation of enzyme activities was performed as described above.” left out, “All reactions occurred at 37 °C using 1.7 ng of trypsin, 300 ng of human thrombin, and 300 ng of elastase-1.” left out, “The trypsin and elastase-1 assays were performed using 20 µM of each peptide, and the human thrombin assays were performed using 100 µM.” left out, “The experiments were performed in quadruplicate.” left out

Chain of elastase-1 (EC 3.4.21.36) (P00772 27-266): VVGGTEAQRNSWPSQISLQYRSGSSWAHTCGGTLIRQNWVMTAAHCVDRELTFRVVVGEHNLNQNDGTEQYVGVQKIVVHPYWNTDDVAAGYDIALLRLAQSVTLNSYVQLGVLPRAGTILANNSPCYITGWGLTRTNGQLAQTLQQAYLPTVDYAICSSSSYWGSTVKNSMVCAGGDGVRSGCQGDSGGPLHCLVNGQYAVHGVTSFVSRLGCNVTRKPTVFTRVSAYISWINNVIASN

Compound | Relative Hydrolysis Ratio (%) [1] [%] | Ki (human thrombin) [µM] | reduction of hydrolytic activity of thrombin (human thrombin) [%] | reduction of substrate hydrolysis by elastase-1 [2] [%]
CC(C)C[C@H](NC(=O)[C@H](CC(N)=O)NC(=O)[C@H](Cc1ccc(O)cc1)NC(=O)[C@H](CO)NC(=O)[C@H](CCC(N)=O)NC(=O)[C@H](CCCCN)NC(=O)[C@H](CS)NC(=O)CNC(=O)[C@@H]1CCCN1C(=O)CNC(=O)CNC(=O)[C@H](Cc1ccc(O)cc1)NC(=O)[C@H](CC(=O)O)NC(=O)[C@H](Cc1ccccc1)NC(=O)[C@H](Cc1ccc(O)cc1)NC(=O)[C@H](Cc1ccc(O)cc1)NC(=O)CNC(=O)[C@H](CC(=O)O)NC(=O)[C@H](Cc1c[nH]c2ccccc12)NC(=O)[C@H](CC(=O)O)NC(=O)[C@H](CCCNC(=N)N)NC(=O)[C@H](CCCCN)NC(=O)[C@@H](N)CS)C(=O)N[C@@H](CCCNC(=N)N)C(=O)N[C@H](C(=O)O)[C@@H](C)O [CDR3 D] (H-CKRDWDGYYFDYGGPGCKQSYNLRT-OH) | <0.01 |  |  | 
CC(C)C[C@H](NC(=O)[C@H](CC(N)=O)NC(=O)[C@H](Cc1ccc(O)cc1)NC(=O)[C@H](CO)NC(=O)[C@H](CCC(N)=O)NC(=O)[C@H](CCCCN)NC(=O)[C@H](CS)NC(=O)CNC(=O)CNC(=O)[C@@H]1CCCN1C(=O)CNC(=O)CNC(=O)[C@H](Cc1ccc(O)cc1)NC(=O)[C@H](CC(=O)O)NC(=O)[C@H](Cc1ccccc1)NC(=O)[C@H](Cc1ccc(O)cc1)NC(=O)[C@H](Cc1ccc(O)cc1)NC(=O)CNC(=O)[C@H](CC(=O)O)NC(=O)[C@H](Cc1c[nH]c2ccccc12)NC(=O)[C@H](CC(=O)O)NC(=O)[C@H](CCCNC(=N)N)NC(=O)[C@H](CCCCN)NC(=O)[C@@H](N)CS)C(=O)N[C@@H](CCCNC(=N)N)C(=O)N[C@H](C(=O)O)[C@@H](C)O [CDR3 E] (H-CKRDWDGYYFDYGGPGGCKQSYNLRT-OH) | <0.01 | 55.7 | 100 | 
CKQSYNLRT [CDR3 C] | <0.01 |  |  | 22
CKRDWDGYYFDY [CDR3 A] | <0.01 | 61.8 | 34 | 

Reference: publication PMC11121450, “Evaluation of the Inhibitory Potential of Synthetic Peptides Homologous to CDR3 Regions of a Monoclonal Antibody against Bothropic Venom Serine Proteases” (International Journal of Molecular Sciences, 2024)
